The values below come from ChEMBL document CHEMBL3243958, “Bufotenine esters” (J Med Chem, 1979).

A short description of data set [1]: Chloroform to aqueous buffer partition coefficient, log P of the compound at pH 7.4 by shake flask method. Type of data set: physicochemical.
Data set [2] deals with Serotonin 1 (5-HT1) receptor (Rattus norvegicus, UniProt P28564+P30940+P19327+P28565). The experiment in a line: Antagonist activity at 5-HT1 receptor in Sprague-Dawley rat assessed as inhibition of 5-HT-induced stomach fundus contraction.
A short description of data set [3]: Chemical stability of the compound assessed as ester hydrolysis in Tyrode's solution at 37 degC for 10 to 15 mins. In kind it is physicochemical. Conditions: read-out: Drug metabolism.
The nature of data set [4]: Stability in Sprague-Dawley rat stomach fundus strip assessed as hydrolysis. In kind it is ADME, tissue-based. Particulars: read-out: Drug metabolism.

Structures are written as SMILES.

`COc1ccc2[nH]cc(CCN(C)C)c2c1` [MEBUFOTENIN] showed a logP in data set [1] of 3.3.

Take `CCCC(=O)Oc1ccc2[nH]cc(CCN(C)C)c2c1.O=C(O)C(=O)O`: the pA2 in data set [2] was 7.32. Besides, the degraded in data set [3] was 5%. Besides, in data set [4], the metabolised is 15%.

Regarding `CCC(=O)Oc1ccc2[nH]cc(CCN(C)C)c2c1.O=C(O)C(=O)O`, the logP in data set [1] came to 5.6. In data set [3], the degraded is 5%. In addition, in data set [4], the metabolised amounted to 15%.

Consider `CN(C)CCc1c[nH]c2ccc(O)cc12` [BUFOTENINE], for which, in data set [2], the pA2 is 7.41. Also, the logP in data set [1] is 0.06.

Turning to `CC(=O)Oc1ccc2[nH]cc(CCN(C)C)c2c1.O=C(O)C(=O)O`, the pA2 in data set [2] came out at 7.71. The logP in data set [1] came to 2.31. The degraded in data set [3] was 5%. Besides, the metabolised in data set [4] was less than 5%.

In the case of `CN(C)CCc1c[nH]c2ccc(OC(=O)C(C)(C)C)cc12`, in data set [3], the degraded came out at 1%. Besides, the metabolised in data set [4] stood at 15%.

On to `CN(C)CCc1c[nH]c2ccccc12`, for which the pA2 in data set [2] turned out to be 6. In data set [1], this compound had a logP of 2.61.

Regarding `CC(C)C(=O)Oc1ccc2[nH]cc(CCN(C)C)c2c1`, in data set [3], the degraded stood at 1%. Further, the metabolised in data set [4] came out at 15%.
